Seven molecules from US10245261B2, “Substituted indol-5-ol derivatives and their therapeutic applications” (NantBioScience, Inc., priority 2013, dated 2019) can be followed below.

Each structure is given as a SMILES string. Read-outs that look alike come from different tables or passages of the source.

Assay [1] has as its system K562. The assay is described as follows: CellTiterBlue cell growth inhibition. In kind it is cell-based. The settings on record: Homo sapiens; K562, 72 hours. Here is the method: (§1) This example illustrated the proliferating cell growth inhibition of selected compounds from this invention. To do this, the cells were seeded into fresh Iscove's growth medium at a density of 0.4e6 cells/ml and grown in log phase for 24 hr. Cells were then resuspended in their fresh respective growth media at 0.1e^6 cells/ml and plated into 384 well black, clear-bottom microplates at 36 ul/well. Test compounds and controls were initially dissolved in DMSO at the desired concentration, then serially diluted to the assay buffer. These solutions were added and cells were incubated for 72 hours at 37° C. CellTiterBlue (Promega cat# G7572) was added on the Beckman FX. Plates were returned to the 37° C. CO2 incubator for 4 hr and then fluorescence was determined on the Victor plate reader. Data were processed using Microsoft Excel, and GI50 values were generated using Prism (GraphPad Software, San Diego, Calif.).

In assay [2] the test system is MV4.11. The assay is described as follows: CellTiterBlue cell growth inhibition. The class given is cell-based. The note with it: Homo sapiens; MV4.11, 72 hours. How it is done:
as §1
(Resazurin is reduced to fluorescent resorufin, in cell work by metabolically active cells.)

Assay [3] deals with Abl(h) (Homo sapiens, UniProt P00519). The assay is described as follows: KinaseProfiler kinase assay. In kind it is biochemical.
Assay [4] addresses Ret(h) (Homo sapiens, UniProt P07949). Description: KinaseProfiler kinase assay. The class given is biochemical. The essentials:
(§2)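 Using a filter-binding 33P format, reactions initiated by MgATP addition proceeded 40 min at room temperature before a 3% phosphoric acid stop. Filtermats were washed three times in 50 mM phosphoric acid and once in methanol, dried and counted.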

The target in assay [5] is T1, Aurora-A(h) (Homo sapiens, UniProt O14965).
T1 sequence (O14965 1-403): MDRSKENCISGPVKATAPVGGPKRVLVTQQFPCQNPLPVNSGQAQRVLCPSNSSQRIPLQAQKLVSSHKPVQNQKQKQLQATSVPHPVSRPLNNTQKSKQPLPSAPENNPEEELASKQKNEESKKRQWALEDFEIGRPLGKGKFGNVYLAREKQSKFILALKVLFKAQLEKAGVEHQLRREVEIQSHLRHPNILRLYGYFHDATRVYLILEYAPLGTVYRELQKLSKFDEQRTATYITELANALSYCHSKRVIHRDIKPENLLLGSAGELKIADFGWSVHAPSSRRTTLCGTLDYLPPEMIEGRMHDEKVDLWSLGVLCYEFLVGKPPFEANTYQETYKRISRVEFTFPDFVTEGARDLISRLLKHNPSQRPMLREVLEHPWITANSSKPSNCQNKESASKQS
Description: KinaseProfiler kinase assay. In kind it is biochemical. The note with it: for inhibition at 1 µM: read-out: % Inhibition @1 μM Auroro-A. Summed up: as §2

The target of assay [6] is FGFR1(h) (Homo sapiens, UniProt P11362). The assay is described as follows: KinaseProfiler kinase assay. In kind it is biochemical. The essentials:
as §2

The target of assay [7] is cSRC(h) (Homo sapiens, UniProt P12931). The assay is described as follows: KinaseProfiler kinase assay. In kind it is biochemical. Summed up: as §2
Assay [8] concerns the target KDR(h) (Homo sapiens, UniProt P35968). Description: KinaseProfiler kinase assay. The class given is biochemical.
Assay [9] deals with human MIAPaCa-2 pancreatic carcinoma xenograft. The assay is described as follows: Pancreatic carcinoma xenograft in athymic nude mice. The class given is in vivo, mouse. The settings on record: MIAPaCa-2 xenograft; for anti-tumor effect: nude mice, single agent. Here is the method: The objective of the third study was to evaluate antitumor activities of novel multiple-kinase inhibitor NTW-3475 in human MIAPaCa-2 pancreatic carcinoma xenograft in athymic nude-Faxn1 mice.
Four animals were randomly assigned to study groups. Each animal was weighed, and then injected subcutaneously in the left and right flank area with 0.1 ml of 5.0×10^7 MIAPaCa-2 cells per mL.
Each test or control animal was on a 5-day on, two-day off for two cycles treatment schedule with negative control vehicle, positive control Abraxane at 20 mg/kg or 25, 50 mg/kg of NTW-3475. Tumor growth was measured with a digital hand held caliper twice weekly (once tumor emerges) prior to the first dosing and then two to three times weekly until euthanized.
The objective of the third study was to evaluate antitumor activities of novel multiple-kinase inhibitor Compound 10, 11, 12, 53, 68, 82, 83, 88, and 90 in human MIAPaCa-2 pancreatic carcinoma xenograft in athymic nude-Faxn1 mice.
Each test or control animal was on a 5-day on, two-day off for three cycles treatment schedule with negative control vehicle or 40 mg/kg of Compound 10, 11, 12, 53, 68, 82, 83, 88 and 90. Tumor growth was measured with a digital hand held caliper twice weekly (once tumor emerges) prior to the first dosing and then two to three times weekly until euthanized.

The mark [10] stands for this setting: read-out: IC50 (nM) Auroro-A (h).

cSRC(h), sequence (P12931 whole entry): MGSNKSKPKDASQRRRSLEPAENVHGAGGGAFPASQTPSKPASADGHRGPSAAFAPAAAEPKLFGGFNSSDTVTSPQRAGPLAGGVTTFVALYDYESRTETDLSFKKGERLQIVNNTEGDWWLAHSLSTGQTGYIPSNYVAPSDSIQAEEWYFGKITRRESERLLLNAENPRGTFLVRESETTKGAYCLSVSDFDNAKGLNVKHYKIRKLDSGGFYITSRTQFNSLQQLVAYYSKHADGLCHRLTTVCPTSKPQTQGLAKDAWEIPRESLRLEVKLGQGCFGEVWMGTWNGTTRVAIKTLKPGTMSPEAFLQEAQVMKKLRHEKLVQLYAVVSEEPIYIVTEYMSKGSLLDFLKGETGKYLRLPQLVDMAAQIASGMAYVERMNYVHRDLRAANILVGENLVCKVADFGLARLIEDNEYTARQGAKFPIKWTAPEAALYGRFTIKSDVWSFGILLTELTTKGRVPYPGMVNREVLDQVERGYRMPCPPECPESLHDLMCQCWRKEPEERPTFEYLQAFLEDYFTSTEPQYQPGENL
Ret(h), sequence (P07949 29-1114): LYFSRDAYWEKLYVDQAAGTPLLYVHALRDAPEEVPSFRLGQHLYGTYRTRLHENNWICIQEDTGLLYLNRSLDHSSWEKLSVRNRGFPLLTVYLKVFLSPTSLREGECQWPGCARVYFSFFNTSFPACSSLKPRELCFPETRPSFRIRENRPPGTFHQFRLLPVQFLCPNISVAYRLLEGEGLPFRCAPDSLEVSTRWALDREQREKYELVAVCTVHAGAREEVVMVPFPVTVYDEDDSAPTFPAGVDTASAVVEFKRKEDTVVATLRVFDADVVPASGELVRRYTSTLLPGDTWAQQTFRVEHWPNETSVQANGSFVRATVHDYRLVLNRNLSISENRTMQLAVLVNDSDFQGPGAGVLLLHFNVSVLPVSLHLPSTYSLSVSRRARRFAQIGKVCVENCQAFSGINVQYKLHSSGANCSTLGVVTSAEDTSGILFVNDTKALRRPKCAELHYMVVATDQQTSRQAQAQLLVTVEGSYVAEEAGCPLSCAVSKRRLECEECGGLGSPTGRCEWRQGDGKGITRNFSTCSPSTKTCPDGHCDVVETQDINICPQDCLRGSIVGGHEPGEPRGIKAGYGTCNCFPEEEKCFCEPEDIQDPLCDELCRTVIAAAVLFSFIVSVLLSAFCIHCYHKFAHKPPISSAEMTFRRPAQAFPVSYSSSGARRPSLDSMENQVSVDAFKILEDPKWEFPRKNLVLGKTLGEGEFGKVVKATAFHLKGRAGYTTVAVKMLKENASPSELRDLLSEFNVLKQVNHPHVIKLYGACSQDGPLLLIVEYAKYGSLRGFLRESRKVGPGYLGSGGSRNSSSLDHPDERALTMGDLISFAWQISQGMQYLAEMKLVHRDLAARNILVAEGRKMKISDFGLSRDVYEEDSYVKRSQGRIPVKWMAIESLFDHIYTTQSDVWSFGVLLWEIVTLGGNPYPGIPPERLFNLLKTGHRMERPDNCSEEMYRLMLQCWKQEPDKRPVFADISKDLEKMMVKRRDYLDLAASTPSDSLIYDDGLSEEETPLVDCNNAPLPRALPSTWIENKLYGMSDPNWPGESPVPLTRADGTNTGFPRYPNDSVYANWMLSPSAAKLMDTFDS
Abl(h), sequence (P00519 whole entry): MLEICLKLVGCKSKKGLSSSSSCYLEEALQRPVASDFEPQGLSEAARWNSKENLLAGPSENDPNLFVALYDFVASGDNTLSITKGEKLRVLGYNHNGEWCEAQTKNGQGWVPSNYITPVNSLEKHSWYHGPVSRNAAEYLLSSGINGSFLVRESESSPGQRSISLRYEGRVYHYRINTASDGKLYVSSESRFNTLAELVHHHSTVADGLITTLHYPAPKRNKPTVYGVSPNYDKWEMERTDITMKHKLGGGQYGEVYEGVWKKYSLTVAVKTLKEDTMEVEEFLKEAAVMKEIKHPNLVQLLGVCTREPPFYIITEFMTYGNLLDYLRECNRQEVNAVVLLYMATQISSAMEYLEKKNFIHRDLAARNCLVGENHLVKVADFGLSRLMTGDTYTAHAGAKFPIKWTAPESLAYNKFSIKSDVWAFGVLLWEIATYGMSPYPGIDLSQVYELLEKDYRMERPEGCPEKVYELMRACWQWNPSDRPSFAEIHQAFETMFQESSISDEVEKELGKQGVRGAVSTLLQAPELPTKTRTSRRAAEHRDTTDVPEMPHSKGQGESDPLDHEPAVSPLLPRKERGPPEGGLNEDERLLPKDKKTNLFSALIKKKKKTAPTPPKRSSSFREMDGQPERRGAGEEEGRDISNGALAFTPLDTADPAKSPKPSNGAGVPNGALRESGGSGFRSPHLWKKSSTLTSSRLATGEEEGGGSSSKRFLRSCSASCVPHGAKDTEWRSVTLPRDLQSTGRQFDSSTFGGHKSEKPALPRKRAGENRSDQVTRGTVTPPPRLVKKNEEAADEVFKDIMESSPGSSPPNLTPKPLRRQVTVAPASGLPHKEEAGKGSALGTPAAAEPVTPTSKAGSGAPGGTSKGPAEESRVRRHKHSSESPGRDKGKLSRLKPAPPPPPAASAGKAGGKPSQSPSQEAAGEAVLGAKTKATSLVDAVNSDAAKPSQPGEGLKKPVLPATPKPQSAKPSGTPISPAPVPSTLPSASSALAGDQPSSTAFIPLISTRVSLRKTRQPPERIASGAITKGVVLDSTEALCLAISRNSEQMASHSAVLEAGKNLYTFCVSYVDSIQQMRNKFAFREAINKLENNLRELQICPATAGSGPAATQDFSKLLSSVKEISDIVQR
KDR(h), sequence (P35968 20-1356): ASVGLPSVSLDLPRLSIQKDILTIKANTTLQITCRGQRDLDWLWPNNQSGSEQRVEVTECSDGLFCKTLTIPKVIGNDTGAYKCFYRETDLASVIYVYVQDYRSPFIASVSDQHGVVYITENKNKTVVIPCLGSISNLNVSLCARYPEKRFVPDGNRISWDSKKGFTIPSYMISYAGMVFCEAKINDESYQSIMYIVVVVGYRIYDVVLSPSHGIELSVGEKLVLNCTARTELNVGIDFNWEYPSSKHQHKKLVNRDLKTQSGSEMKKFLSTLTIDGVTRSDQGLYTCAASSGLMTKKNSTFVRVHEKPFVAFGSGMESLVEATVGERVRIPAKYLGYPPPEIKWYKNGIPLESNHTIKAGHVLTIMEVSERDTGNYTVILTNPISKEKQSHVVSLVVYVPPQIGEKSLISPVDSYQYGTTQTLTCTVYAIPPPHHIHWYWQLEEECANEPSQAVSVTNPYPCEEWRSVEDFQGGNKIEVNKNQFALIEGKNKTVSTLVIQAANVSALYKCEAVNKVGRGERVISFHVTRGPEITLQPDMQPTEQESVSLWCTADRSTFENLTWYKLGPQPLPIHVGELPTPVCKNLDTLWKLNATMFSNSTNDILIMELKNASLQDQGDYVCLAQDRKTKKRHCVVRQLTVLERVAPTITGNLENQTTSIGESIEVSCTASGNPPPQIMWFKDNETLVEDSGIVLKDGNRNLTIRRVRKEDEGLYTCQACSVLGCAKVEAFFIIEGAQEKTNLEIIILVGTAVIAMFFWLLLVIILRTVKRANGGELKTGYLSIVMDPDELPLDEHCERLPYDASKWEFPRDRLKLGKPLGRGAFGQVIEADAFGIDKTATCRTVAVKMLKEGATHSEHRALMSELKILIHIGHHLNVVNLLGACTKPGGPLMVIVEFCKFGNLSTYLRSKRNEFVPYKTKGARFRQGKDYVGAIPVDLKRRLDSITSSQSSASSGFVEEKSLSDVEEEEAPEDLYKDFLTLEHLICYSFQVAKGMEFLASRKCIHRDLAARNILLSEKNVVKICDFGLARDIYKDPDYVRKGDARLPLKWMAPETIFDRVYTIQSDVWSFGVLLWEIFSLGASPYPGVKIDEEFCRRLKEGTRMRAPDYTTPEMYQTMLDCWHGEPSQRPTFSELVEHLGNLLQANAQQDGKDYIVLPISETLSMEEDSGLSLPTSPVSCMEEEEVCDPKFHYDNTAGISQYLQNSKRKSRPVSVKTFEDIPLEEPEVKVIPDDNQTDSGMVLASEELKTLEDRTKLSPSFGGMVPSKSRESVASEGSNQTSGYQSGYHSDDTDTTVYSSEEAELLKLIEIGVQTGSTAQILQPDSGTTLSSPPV
FGFR1(h), sequence (P11362 22-822): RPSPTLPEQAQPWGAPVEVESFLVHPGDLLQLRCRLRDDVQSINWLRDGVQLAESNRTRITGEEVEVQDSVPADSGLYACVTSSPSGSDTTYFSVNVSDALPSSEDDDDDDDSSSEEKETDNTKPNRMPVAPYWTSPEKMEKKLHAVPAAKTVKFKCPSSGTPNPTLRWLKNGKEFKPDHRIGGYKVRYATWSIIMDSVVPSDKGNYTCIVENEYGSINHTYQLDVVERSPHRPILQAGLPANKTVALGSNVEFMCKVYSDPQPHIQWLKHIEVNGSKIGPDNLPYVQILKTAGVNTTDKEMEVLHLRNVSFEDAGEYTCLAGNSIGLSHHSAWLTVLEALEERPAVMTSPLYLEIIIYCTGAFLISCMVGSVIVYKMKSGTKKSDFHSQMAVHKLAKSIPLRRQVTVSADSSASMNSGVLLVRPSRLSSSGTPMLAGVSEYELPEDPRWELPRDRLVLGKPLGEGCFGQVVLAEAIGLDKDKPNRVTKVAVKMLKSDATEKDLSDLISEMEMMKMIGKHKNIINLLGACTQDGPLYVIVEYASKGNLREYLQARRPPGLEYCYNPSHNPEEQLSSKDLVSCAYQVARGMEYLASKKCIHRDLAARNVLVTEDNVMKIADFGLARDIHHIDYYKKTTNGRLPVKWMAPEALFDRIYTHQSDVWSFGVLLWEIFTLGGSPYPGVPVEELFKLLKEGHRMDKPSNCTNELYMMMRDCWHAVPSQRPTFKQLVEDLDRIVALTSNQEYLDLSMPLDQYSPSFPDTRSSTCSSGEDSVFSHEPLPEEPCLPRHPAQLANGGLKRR

One may read the GI50 as the concentration at which growth is held to half of that of the control. Low values mean more potent growth inhibition, high ones less potent growth inhibition. What is called inhibition is the change of the read-out against control, counted positive when it falls. By IC50 is commonly meant the concentration needed to halve the response being measured. With `C/C=C/c1cc(Nc2cc(N3CCN(C)CC3)nc(Oc3ccc4[nH]c(C)cc4c3F)n2)n[nH]1` [Compound 53], the GI50 in [1] turned out to be 0.69 nM; in assay [2] it was 0.15 nM. Moreover, the inhibition at 1 µM is 109% in assay [3]; 98% in assay [4]; 97% in assay [5]; 98% in [7]; 95% in [8]. Moreover, the IC50 in assay [3] (Abl, read-out: IC50) is 0.6 nM; in [4] (Ret, read-out: IC50) it was 2 nM; in [5] (Aurora-A, read-out: IC50) it was 4 nM; in assay [6] (FGFR1, read-out: IC50), 0.5 nM; in [7] (cSrc, read-out: IC50), 2 nM; in assay [8] (VEGFR2, read-out: IC50), 16 nM.

With `C/C=C/c1cc(Nc2cc(N3CCN(CCO)CC3)nc(Oc3cc(F)c4[nH]c(C)cc4c3F)n2)n[nH]1` [Compound 88], the GI50 came to 0.6 nM in assay [1] and 0.16 nM in assay [2]. In addition, the inhibition at 1 µM is 113% in assay [3]; 99% in assay [4]; 100% in [5]; 100% in assay [7]; 96% in assay [8]. The IC50 amounted to 1 nM in [3] (read-out: IC50 (nM) Abl (h)), 0.2 nM in assay [6] (read-out: IC50 (nM) FGFR1 (h)), 4 nM in assay [7] (read-out: IC50 (nM) cSrc (h)) and 44 nM in [8] (read-out: IC50 (nM) KDR (h)). Also, in assay [9], the anti-tumor effect result is “strong anti-tumor effect”.

`Cc1cc2c(F)c(Oc3nc(Nc4cc(C5CC5)[nH]n4)cc(N4CCNCC4)n3)cc(F)c2[nH]1` [Compound 82]: the GI50 was 0.31 nM in assay [1] and 0.28 nM in assay [2]. Further, the inhibition at 1 µM in assay [3] is 106%; in [4], 100%; in [5] it was 100%; in assay [7] it was 100%; in assay [8], 95%. The IC50 turned out to be 0.2 nM in assay [3] (read-out: IC50 (nM) Abl (h)); 1 nM in assay [4] (read-out: IC50 (nM) Ret (h)); 4 nM in [5] (setting [10]); 0.6 nM in assay [6] (read-out: IC50 (nM) FGFR1 (h)); 2 nM in [7] (read-out: IC50 (nM) cSrc (h)); 11 nM in [8] (read-out: IC50 (nM) KDR (h)). Moreover, the “anti-tumor effect in combination with Abraxane” value (from here on “anti-tumor effect in combination”) in assay [9] is given as “significant antitumor efficacy”. Besides, the anti-tumor effect result in assay [9] is listed as “strong anti-tumor effect”.

On to `C/C=C/c1cc(Nc2cc(N3CCN(C)CC3)nc(Oc3cc(F)c4[nH]c(C)cc4c3F)n2)n[nH]1` [NTW-3456], for which, in assay [9], the “anti-tumor effect in combination” value is reported as “significant anti-tumor activity” and the anti-tumor effect entry is listed as “some anti-tumor activity”.

For the molecule `Cc1cc2c(F)c(Oc3nc(Nc4cc(C5CC5)[nH]n4)cc(N4CCN(C)CC4)n3)ccc2[nH]1` [Compound 10], the GI50 in assay [1] and in [2] was 0.19 nM in each case. Besides, the inhibition at 0.1 µM was 110% in assay [3]; 102% in assay [4]; 98% in assay [5]; 100% in assay [6]; 103% in assay [7]; 93% in assay [8]. Further, the inhibition at 1 µM in [3] turned out to be 112%; in [4], 101%; in assay [5], 99%; in assay [7], 100%; in assay [8] it was 95%. Also, the IC50 in assay [3] (read-out: IC50 (nM) Abl (h)) amounted to 0.5 nM; in assay [5] (setting [10]), 2 nM; in [6] (read-out: IC50 (nM) FGFR1 (h)) it was 1 nM; in assay [7] (read-out: IC50 (nM) cSrc (h)), 3 nM. Also, the anti-tumor effect entry in [9] is listed as “strong anti-tumor effect”.

Regarding `Cc1cc2c(F)c(Oc3nc(Nc4cc(C5CC5)[nH]n4)cc(N4CCNCC4)n3)ccc2[nH]1` [Compound 11, N-(5-cyclopropyl-1H-pyrazol-3-yl)-2-((4-fluoro-2-methyl-1H-indol-5-yl)oxy)-6-(piperazin-1-yl)pyrimidin-4-amine], the GI50 in assay [1] was determined as 0.41 nM; in [2], 0.29 nM. Moreover, the inhibition at 0.1 µM in assay [3] was 108%; in [4] it was 100%; in assay [5], 99%; in assay [6], 100%; in [7], 98%; in [8] it was 92%. Also, the inhibition at 1 µM in assay [3] turned out to be 111%; in [4] it was 101%; in assay [5], 100%; in assay [7] it was 101%; in assay [8] it was 96%. Moreover, the IC50 was 0.5 nM in assay [3] (read-out: IC50 (nM) Abl (h)); < 0.1 nM in assay [5] (setting [10]); 0.5 nM in assay [6] (read-out: IC50 (nM) FGFR1 (h)); 3 nM in assay [7] (read-out: IC50 (nM) cSrc (h)); 12 nM in [8] (read-out: IC50 (nM) KDR (h)). For the same molecule, the anti-tumor effect entry in assay [9] was “strong anti-tumor effect”.

Consider `C/C=C/c1cc(Nc2cc(N3CCNCC3)nc(Oc3ccc4[nH]c(C)cc4c3F)n2)n[nH]1` [Compound 68], for which the GI50 came out at 0.26 nM in assay [1] and 0.16 nM in assay [2]. Further, the inhibition at 1 µM came out at 107% in assay [3]; 99% in assay [4]; 99% in assay [5]; 96% in assay [7]; 92% in assay [8]. Besides, the IC50 turned out to be 0.3 nM in assay [3] (read-out: IC50 (nM) Abl (h)); 10 nM in assay [5] (setting [10]); 0.6 nM in [6] (read-out: IC50 (nM) FGFR1 (h)); 2 nM in assay [7] (read-out: IC50 (nM) cSrc (h)); 12 nM in assay [8] (read-out: IC50 (nM) KDR (h)). In assay [9], the “anti-tumor effect in combination” value is reported as “significant antitumor efficacy”. In addition, the anti-tumor effect result in assay [9] is on record as “strong anti-tumor effect”.
